According to US5328840A, “Method for preparing targeted carrier erythrocytes” (The Research Foundation of the State University of New York, priority 1991, dated 1994):
“Also recorded” adds a separate entry of the source. Where two headings read alike, the source gives them in different places. One block for each compound: values may come before it. Where a SMILES comes first, the peptide text is derived from it.

Legend:
platelets [1] = test: Release of 14C-serotonin from platelets; type: cell-based; settings: acetylsalicylic acid 50 μM; PGE1 0.14 μM; 8 min
Protocol: Citrated PRP (3×10^11 /l) was incubated with ^14 C-5-serotonin (10 μCi/ml stock solution, 20-25 nCi/ml final concentration, New England Nuclear, Boston, Mass.) for 30 min at 22° C. with gentle stirring (~100 rpm) using a teflon coated stir bar. In order to maintain the PRP pH constant at ~7.60, the PRP was overlayed with 5% CO2, 95% air just before the incubation began. Serotonin uptake was terminated by adding 5 μM imipramine (Sigma) and stirring was continued for another 5 min. Total uptake under these conditions was 70-80% of the added serotonin. The agglutination assay was performed in quadruplicate in the same way as described above except that after 8 min of shaking, 70 μl of cold 2% paraformaldehyde in PBS, pH 7.4 was added to the wells and the microtiter plate was centrifuged at 1000×g for 5 min at 22° C. The top 50 μl of the supernatant (total volume in each well was 145 μl) was added to scintillation fluid and counted in a scintillation spectrometer. In some experiments the PRP was preincubated with acetylsalicylic acid (50 μM) or PGE1 (0.14 μM) during the serotonin uptake.

erythrocytes = test: Assessment of hemolysis (leucomalachite green); settings: mean SD; n=6
Protocol: Hemolysis of erythrocytes during thrombo-erythrocyte preparation was assayed by the reaction of any free hemoglobin with leucomalachite green (Kodak; 0.1% p,p'-benzylidenebis-(N,N-dimethylaniline) in 3.3 M acetic acid). The resulting compound was detected by absorbance at 617 nm, a wavelength that is not interfered with by the mal-sac-HNSA dianion. Standards were prepared by lysing known amounts of erythrocytes in deionized water. The assay consisted of 10 μl of sample (the supernatant of the reaction mixture after centrifuging to remove intact erythrocytes), 1 ml of leucomalachite green, and 1 ml of 0.1% […]. After 10 min the absorbance of each sample was read at 617 nm.

activated platelets = test: Platelet-thrombo-erythrocyte co-aggregation assay (microtiter); type: cell-based
Protocol: To assess the ability of thrombo-erythrocytes to enter into developing platelet aggregates, a microtiter assay was developed. Platelet-rich plasma (PRP) was prepared from blood anticoagulated with 0.01 volume 40% sodium citrate and adjusted to a platelet count of 3.5×10^8 /ml with platelet-poor plasma. Aliquots (50 or 100 μl) of the PRP were added to microtiter wells and then 5 or 10 μl of ADP (100 μM stock solution) was added to selected wells, followed by the addition of 5 or 10 μl of thrombo-erythrocytes (10% hematocrit in buffer A). The microtiter plate was then rotated at 270 rpm at 22° C. for variable periods of time between 0.5 and 20 min and the extent of platelet-thrombo-erythrocytecoaggregation was assessed visually on a scale from 0-4+ with the aid of a magnifying mirror. To assess the specificity of the reaction, in some experiments the PRP was preincubated with 10 mM EDTA, 300 μg/ml of the peptide RGDF, or 20 μg/ml of an antibody directed against both the GPIIb/IIIa receptor and the αv β3 vitronectin receptor that blocks fibrinogen binding to activated platelets (7E3) (Coller, 1985, J. Clin. Invest. 76:101-108; Coller et al., 1991, Blood 77:75-83). Blood smears were made from the samples in some experiments and stained with a standard Wright stain (Hemastain, Geometric Data, Wayne, Pa.).

gel-filtered platelets = test: Co-aggregation of thrombo-erythrocytes with gel-filtered platelets in the aggregometer; type: cell-based
Protocol: To obtain more quantitative data on the co-aggregation of thrombo-erythrocytes with platelets, the assay was adapted to the aggregometer. PRP was prepared from whole blood anticoagulated with ACD-A (8.5:1.5) and gel-filtered over a column of Sepharose 2B (Pharmacia) using a modified Tyrodes buffer (140 mM NaCl, 3 mM KCl, 12 mM NaHCO3, 0.4 mM NaH2 PO4, 10 mM HEPES, 2 mM MgCl2, 0.2% bovine serum albumin, 5 mM glucose, pH 7.4). Samples consisted of 450 μl of gel-filtered platelets+20 μl of thrombo-erythrocytes (10% hematocrit) or control erythrocytes (i.e., erythrocytes incubated with peptide but no crosslinker). Maximal transmission was set with 450 μl of buffer+20 μl of control erythrocytes. Platelets were activated with ADP (4.3 μM final concentration) or epinephrine (10 μM).

[2] = system: platelets adherent to collagen; test: Binding of thrombo-erythrocytes to platelets adherent to collagen; type: cell-based; settings: 1 hour, 22° C., 2 mM MgCl2
Protocol: The first stage of the assay, involving the adhesion of platelets to purified type 1 rat skin collagen, was performed as described previously, but without radiolabeling the platelets (Coller et al., 1989, Blood 74:182-192). In brief, a sample of gel-filtered platelets (100 μl; 5.5×10^8 /ml) in the presence of 2 mM MgCl2 was added to microtiter plate wells precoated with collagen and the platelets were allowed to adhere for 1 hour at 22° C. The wells were then emptied and washed×3 with buffer (0.15M NaCl, 0.01M Tris/HCl, 0.5% bovine serum albumin, 5 mM glucose, pH 7.4). Control erythrocytes or thrombo-erythrocytes (50 μl; 10% hematocrit) were then added to the wells in the same buffer, which was now supplemented with 2 mM MgCl2. After 60 min, the wells were emptied and washed×3 as above. The wells were then visually inspected at 400× magnification with the aid of a microscope with Nomarski optics. The effect of 20 μg/ml of an antibody to GPIIb/IIIa that blocks fibrinogen binding and platelet aggregation (10E5) (Coller et al., 1983, J. Clin. Invest. 72:325-338) and 400 μg/ml of the peptide RGDF on thrombo-erythrocyte adhesion to platelets was tested by adding these agents to the thrombo-erythrocytes immediately before the thrombo-erythrocytes were added to the microtiter wells.

[3] = for solubility in 0.1% trifluoroacetic acid: pH 2.5; for solubility in the acetate buffer: pH 6.5
[4] = target: T1, 10E5 binding to platelets (Homo sapiens, UniProt P05106+P08514); test: Effect of RGD peptides on initial rate of 125I-10E5 binding to platelets; settings: similar concentrations (up to 5 mM); one experiment
T1 construct: endogenous in cells; host or cells: platelets in citrated platelet-rich plasma (PRP)
T1 sequence (P08514 32-887 limits assumed): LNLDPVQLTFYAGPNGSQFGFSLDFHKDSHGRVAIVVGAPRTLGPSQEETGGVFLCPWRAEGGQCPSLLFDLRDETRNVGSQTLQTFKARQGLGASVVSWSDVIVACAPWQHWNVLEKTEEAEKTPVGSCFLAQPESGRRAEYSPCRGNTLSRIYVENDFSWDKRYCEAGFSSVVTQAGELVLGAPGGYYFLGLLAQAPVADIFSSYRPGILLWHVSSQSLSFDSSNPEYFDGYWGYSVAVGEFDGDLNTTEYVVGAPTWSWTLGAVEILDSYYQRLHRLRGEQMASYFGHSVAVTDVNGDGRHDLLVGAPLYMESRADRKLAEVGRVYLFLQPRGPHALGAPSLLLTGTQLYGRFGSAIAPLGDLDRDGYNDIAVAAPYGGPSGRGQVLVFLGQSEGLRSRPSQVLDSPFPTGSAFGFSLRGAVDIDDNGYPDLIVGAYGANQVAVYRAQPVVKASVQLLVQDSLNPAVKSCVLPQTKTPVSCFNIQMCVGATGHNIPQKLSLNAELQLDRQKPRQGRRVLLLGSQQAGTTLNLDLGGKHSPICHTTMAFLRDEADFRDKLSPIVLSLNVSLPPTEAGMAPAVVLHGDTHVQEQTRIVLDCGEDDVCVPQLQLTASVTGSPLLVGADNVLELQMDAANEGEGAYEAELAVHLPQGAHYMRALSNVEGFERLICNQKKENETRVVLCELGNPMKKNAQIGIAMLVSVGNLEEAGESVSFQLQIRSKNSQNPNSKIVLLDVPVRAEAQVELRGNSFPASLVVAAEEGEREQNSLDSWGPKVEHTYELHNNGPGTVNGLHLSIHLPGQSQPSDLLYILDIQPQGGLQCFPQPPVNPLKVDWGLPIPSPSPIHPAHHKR
T1 sequence (P08514 891-1039 partner limits assumed): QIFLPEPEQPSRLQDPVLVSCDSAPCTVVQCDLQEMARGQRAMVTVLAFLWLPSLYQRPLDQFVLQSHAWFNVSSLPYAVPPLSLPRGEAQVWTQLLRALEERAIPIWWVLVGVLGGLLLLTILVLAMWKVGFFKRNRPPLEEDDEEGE
T1 sequence (P05106 27-788): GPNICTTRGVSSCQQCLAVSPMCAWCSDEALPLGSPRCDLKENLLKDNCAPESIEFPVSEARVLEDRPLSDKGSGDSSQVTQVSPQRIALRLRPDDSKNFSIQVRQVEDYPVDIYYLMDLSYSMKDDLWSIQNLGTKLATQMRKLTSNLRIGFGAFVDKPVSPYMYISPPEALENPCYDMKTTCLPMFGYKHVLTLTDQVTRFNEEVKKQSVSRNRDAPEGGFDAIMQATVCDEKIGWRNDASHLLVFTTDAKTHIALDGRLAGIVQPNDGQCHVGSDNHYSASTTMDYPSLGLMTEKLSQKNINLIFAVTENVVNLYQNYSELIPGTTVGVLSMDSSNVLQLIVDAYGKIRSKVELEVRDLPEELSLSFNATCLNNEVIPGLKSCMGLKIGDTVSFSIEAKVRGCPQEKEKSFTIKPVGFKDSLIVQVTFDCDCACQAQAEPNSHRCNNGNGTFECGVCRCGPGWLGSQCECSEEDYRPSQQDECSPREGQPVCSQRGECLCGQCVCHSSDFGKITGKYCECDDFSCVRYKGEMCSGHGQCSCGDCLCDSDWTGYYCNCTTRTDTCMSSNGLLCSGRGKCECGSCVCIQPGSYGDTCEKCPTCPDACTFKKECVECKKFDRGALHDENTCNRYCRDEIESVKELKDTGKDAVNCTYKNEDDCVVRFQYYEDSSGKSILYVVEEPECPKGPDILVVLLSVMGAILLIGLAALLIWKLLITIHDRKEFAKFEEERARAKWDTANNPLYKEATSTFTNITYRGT
Protocol: (§1) To assess the effect of RGD-containing peptides on the initial rate of binding of 7E3 and 10E5, studies were conducted with ^125 I-7E3 and ^125 I-10E5 essentially as described before (Coller, B.S., 1985, J. Clin. Invest. 76:101). The RGDS or LGGAKQAGDV(R)8 RGDV peptide was incubated at 22° C. with citrated PRP (~3×10^8 /ml) for 1 to 5 min at various concentrations and then non-saturating concentrations of the antibodies (1.5-2.5 μg/ml) were added for 1 to 2 min. The bound antibody was separated from the free by centrifugation of the PRP through 20% sucrose and both the platelet pellet and the supernatant were counted. Results were expressed as either an increase or decrease in antibody binding as compared to a buffer control.

7E3 binding to platelets = target: T2, 7E3 binding to platelets (Homo sapiens, UniProt P05106+P08514); test: Effect of RGD peptides on initial rate of 125I-7E3 binding to platelets
T2 construct: endogenous in cells; host or cells: platelets in citrated platelet-rich plasma (PRP)
T2 sequence (P08514 32-887 limits assumed): as the sequence (P08514 32-887 limits assumed) above
T2 sequence (P08514 891-1039 partner limits assumed): as the sequence (P08514 891-1039 partner limits assumed) above
T2 sequence (P05106 27-788): as the sequence (P05106 27-788) above
Protocol: as §1

[5] = Solubility of (G)n-RGDF peptides in buffers
platelets [6] = test: Agglutination assay with peptide-coated beads; type: cell-based
Protocol: Biol. 109:863) was a gift of Dr. Kenneth Yamada, National Institutes of Health, Bethesda, Md. The platelets were incubated with the antibody concentrations indicated for 30-60 min before the addition of the beads. In the case of PAC-1, which binds only to activated platelets (Shattil et al. 1985, J. Biol. Chem. 260:1107), the platelets were activated with ADP (6.7 μM final concentration) without stirring for 5 min before adding the antibody.
To 70 μl of PRP or GFP at a count of 3×10^11 platelets/l in a 96 well round bottom polystyrene microtiter plate, 5 μl of a well mixed bead suspension (0.22 mg beads) was added and the plate was rotated at 260 rpm (Orbit shaker, Lab Line Instruments, Melrose Park, Ill.) for various times between 0 and 30 min (0.5, 1, 2, 4, 6, 8, 10, 12, 15, 20, 25, 30 min). […] Platelet counts in the supernatant plasma or buffer were measured by removing 5 μl from the supernatant after allowing the bead agglutinates to settle for 3 min. […] In some experiments, platelets were activated with 6.7 μM ADP 30 sec prior to the addition of the beads; in other experiments the platelets were preincubated with 0.14 μM PGE1 (Sigma, St. Louis) for 30 min.

Compound: CCCCC[C@H](O)/C=C/[C@H]1[C@H](O)CC(=O)[C@@H]1CCCCCCC(=O)O [PGE1]
- effect of preincubation of platelets on serotonin release induced by (G)n -RGDF beads (platelets [1]): abolished release

Compound: thrombo-erythrocytes: erythrocytes covalently conjugated through Mal-Sac-HNSA to the peptide acetyl-Cys-Gly-Gly-Arg-Gly-Asp-Phe-amide (Ac-CGGRGDF-NH2) (also: conjugated to erythrocytes via Mal-Sac-HNSA)
- erythrocyte hemolysis in supernatant fluid after the thrombo-erythrocyte reaction (erythrocytes): 0.40±0.09%
- platelet-thrombo-erythrocyte co-aggregation (activated platelets; PRP with ADP, 120 min crosslinking, more than 20 experiments): positive response
- interaction with platelets (activated platelets; no agonist added): did not interact with platelets
- interaction with platelets (aggregometer) (gel-filtered platelets; ADP-activated gel-filtered platelets, 4.3 μM ADP): interact with ADP-activated platelets
- interaction with platelets (aggregometer) (gel-filtered platelets; unactivated gel-filtered platelets, stirring, 37° C.): did not interact with unactivated platelets
- binding to platelets adherent to collagen [2]: formed a dense lawn on top of the platelet lawn; also recorded: bound extensively to the adherent platelets

- solubility in 0.1% trifluoroacetic acid [3]: fully soluble
- solubility in the acetate buffer [3]: only partially soluble
Compound: N=C(N)NCCC[C@H](NC(=O)CNC(=O)CNC(=O)CNC(=O)CNC(=O)CNC(=O)CNC(=O)CNC(=O)CNC(=O)CNC(=O)CNC(=O)CNC(=O)CNC(=O)CNC(=O)CNC(=O)CN)C(=O)NCC(=O)N[C@@H](CC(=O)O)C(=O)N[C@@H](Cc1ccccc1)C(N)=O [G15 -RGDF] (H-GGGGGGGGGGGGGGGRGDF-NH2)

- solubility in 0.1% trifluoroacetic acid [3]: fully soluble
- solubility in the acetate buffer [3]: only partially soluble
Compound: N=C(N)NCCC[C@H](NC(=O)CNC(=O)CNC(=O)CNC(=O)CNC(=O)CNC(=O)CNC(=O)CNC(=O)CNC(=O)CNC(=O)CNC(=O)CNC(=O)CNC(=O)CNC(=O)CNC(=O)CNC(=O)CNC(=O)CNC(=O)CNC(=O)CN)C(=O)NCC(=O)N[C@@H](CC(=O)O)C(=O)N[C@@H](Cc1ccccc1)C(N)=O [G19 -RGDF] (H-GGGGGGGGGGGGGGGGGGGRGDF-NH2)

- decrease in rate of 10E5 binding [4]: 5%
- increase in initial rate of 7E3 binding (7E3 binding to platelets; peptide 2.5 mM, n=1): 63%
- increase in initial rate of 7E3 binding (7E3 binding to platelets; peptide 5 mM, citrated PRP, n=2): 66%
- increase in initial rate of 7E3 binding (7E3 binding to platelets; peptide 0.5-1 mM, n=4): 21%
Compound: RGDS

Compound: N=C(N)NCCC[C@H](NC(=O)CNC(=O)CNC(=O)CNC(=O)CNC(=O)CNC(=O)CNC(=O)CNC(=O)CNC(=O)CNC(=O)CNC(=O)CN)C(=O)NCC(=O)N[C@@H](CC(=O)O)C(=O)N[C@@H](Cc1ccccc1)C(N)=O [G11 -RGDF]
- solubility in the acetate buffer ([5]; 0.05M Na acetate buffer, pH 6.5): only partially soluble
- solubility in 0.1% trifluoroacetic acid ([5]; pH 2.5, 22° C. or 37° C.): fully soluble

Compound: CC(=O)Oc1ccccc1C(=O)O [acetylsalicylic acid]
- effect of preincubation of platelets on serotonin release induced by (G)n -RGDF beads (platelets [1]): did not change this pattern

Compound: Y-HHLGGAKQAGDV (N-terminal added tyrosine) [Fibrinogen Dodecapeptide (+Tyr), fibrinogen γ-chain dodecapeptide (amino acids 400-411) with an added amino-terminal tyrosine]
- Inhibition of G9 -RGDF Bead Agglutination (%) (platelets [6]; peptide 1.8 × 10^-3 M): 13%
- Inhibition of G9 -RGDF Bead Agglutination (%) (platelets [6]; peptide 3.6 × 10^-3 M): 67%
- Inhibition of G9 -RGDF Bead Agglutination (%) (platelets [6]; peptide ≤4.5 × 10^-4 M): 0%

Compound: PAC-1
- inhibition of agglutination of G1 -RGDF and G3 -RGDF beads (platelets [6]): effectively inhibited
- Inhibition of G9 -RGDF Bead Agglutination (%) +ADP (platelets [6]; antibody 60 μg/ml, 30 min): 8%
- inhibition of the interaction of platelets in PRP with G1 -RGDF, G3 -RGDF, and G5 -RGDF beads (platelets [6]; even with ADP activation): > 90%

Compound: O=C(O)CN(CCN(CC(=O)O)CC(=O)O)CC(=O)O [EDTA, reference compound]
- bead agglutination in the presence of the agent (platelets [6]): no agglutination at all
- effect on platelet-thrombo-erythrocyte co-aggregation (activated platelets; ADP-activated PRP preincubated with 10 mM EDTA, 300 μg/ml RGDF or antibody 7E3): inhibited

- solubility in 0.1% trifluoroacetic acid [3]: fully soluble
- solubility in the acetate buffer [3]: only partially soluble
Compound: N=C(N)NCCC[C@H](NC(=O)CNC(=O)CNC(=O)CNC(=O)CNC(=O)CNC(=O)CNC(=O)CNC(=O)CNC(=O)CNC(=O)CNC(=O)CNC(=O)CNC(=O)CN)C(=O)NCC(=O)N[C@@H](CC(=O)O)C(=O)N[C@@H](Cc1ccccc1)C(N)=O [G13 -RGDF]

- solubility in 0.1% trifluoroacetic acid [3]: fully soluble
- solubility in the acetate buffer [3]: only partially soluble
Compound: N=C(N)NCCC[C@H](NC(=O)CNC(=O)CNC(=O)CNC(=O)CNC(=O)CNC(=O)CNC(=O)CNC(=O)CNC(=O)CNC(=O)CNC(=O)CNC(=O)CNC(=O)CNC(=O)CNC(=O)CNC(=O)CNC(=O)CN)C(=O)NCC(=O)N[C@@H](CC(=O)O)C(=O)N[C@@H](Cc1ccccc1)C(N)=O [G17 -RGDF] (H-GGGGGGGGGGGGGGGGGRGDF-NH2)
